Source: ChEMBL document CHEMBL1201862, “PubChem BioAssay data set” (2004)
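Cultured in 96-well plates, cells were exposed to test compound for 48 hours across five concentrations. GI50: concentration for 50% inhibition of growth.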 Calls of active or inactive are those of the source. Rule as the data show it: active = GI50 up to about 1.1 µM and inactive = higher.

Assays:
Assay in all cases: growth of human tumour cells (NCI), 48 h
786-0 = test system: 786-0
A498 = test system: A498
A549 = test system: A549
ACHN = test system: ACHN
BT-549 = test system: BT-549
CAKI-1 = test system: CAKI-1
CCRF-CEM = test system: CCRF-CEM
COLO 205 = test system: COLO 205
EKVX = test system: EKVX
HCC 2998 = test system: HCC 2998
HCT-116 = test system: HCT-116
HCT-15 = test system: HCT-15
HOP-62 = test system: HOP-62
HT-29 = test system: HT-29
Hs-578T = test system: Hs-578T
K562 = test system: K562
KM12 = test system: KM12
M14 = test system: M14
MCF7 = test system: MCF7
MDA-MB-231 = test system: MDA-MB-231
MDA-MB-435 = test system: MDA-MB-435
MDA-N = test system: MDA-N
MOLT-4 = test system: MOLT-4
Malme-3M = test system: Malme-3M
NCI-H226 = test system: NCI-H226
NCI-H23 = test system: NCI-H23
NCI-H460 = test system: NCI-H460
NCI/ADR-RES = test system: NCI/ADR-RES
OVCAR-3 = test system: OVCAR-3
OVCAR-4 = test system: OVCAR-4
OVCAR-5 = test system: OVCAR-5
OVCAR-8 = test system: OVCAR-8
PC-3 = test system: PC-3
RPMI-8226 = test system: RPMI-8226
SF-268 = test system: SF-268
SF-295 = test system: SF-295
SF-539 = test system: SF-539
SK-MEL-28 = test system: SK-MEL-28
SK-MEL-2 = test system: SK-MEL-2
SK-OV-3 = test system: SK-OV-3
SN12C = test system: SN12C
SNB-19 = test system: SNB-19
SNB-75 = test system: SNB-75
SW-620 = test system: SW-620
T47D = test system: T47D
U-251 = test system: U-251
UACC-257 = test system: UACC-257
UACC-62 = test system: UACC-62
UO-31 = test system: UO-31
DU-145 = test system: DU-145
HL-60 = test system: HL-60
HOP-92 = test system: HOP-92
IGROV-1 = test system: IGROV-1
LOX IMVI = test system: LOX IMVI
NCI-H522 = test system: NCI-H522
RXF 393 = test system: RXF 393
SK-MEL-5 = test system: SK-MEL-5
TK-10 = test system: TK-10
SR = test system: SR

For c1ccc2c(c1)ccc1nc(-c3ccc4c(c3)OCO4)c3c(c12)CCC3, the GI50 (786-0) was > 100 µM (inactive), the GI50 (A498) was > 100 µM (inactive) and the GI50 (A549) was 95.9 µM (inactive). The GI50 (ACHN) was > 100 µM (inactive), the GI50 (BT-549) was > 100 µM (inactive) and the GI50 (CAKI-1) was > 100 µM (inactive). The GI50 (CCRF-CEM) was 74.5 µM (inactive), the GI50 (COLO 205) was 56.9 µM (inactive) and the GI50 (EKVX) was 89.3 µM (inactive). For the same compound, the GI50 (HCC 2998) was 79.4 µM (inactive), the GI50 (HCT-116) was 88.9 µM (inactive) and the GI50 (HCT-15) was 83.2 µM. For the same compound, the GI50 (HOP-62) was > 100 µM (inactive), the GI50 (HT-29) was 41.1 µM (inactive) and the GI50 (Hs-578T) was 55.8 µM (inactive). The GI50 (K562) was 20.5 µM (inactive), the GI50 (KM12) was 34 µM (inactive) and the GI50 (M14) was > 100 µM (inactive). For the same compound, the GI50 (MCF7) was 68.1 µM (inactive), the GI50 (MDA-MB-231) was 67.5 µM (inactive) and the GI50 (MDA-MB-435) was 59.6 µM (inactive). The GI50 (MDA-N) was > 100 µM (inactive), the GI50 (MOLT-4) was 42.8 µM (inactive) and the GI50 (Malme-3M) was > 100 µM (inactive). The GI50 (NCI-H226) was > 100 µM (inactive), the GI50 (NCI-H23) was 60.3 µM (inactive) and the GI50 (NCI-H460) was 45.3 µM (inactive). The GI50 (NCI/ADR-RES) was 59.2 µM (inactive), the GI50 (OVCAR-3) was > 100 µM (inactive) and the GI50 (OVCAR-4) was 57.1 µM (inactive). For the same compound, the GI50 (OVCAR-5) was > 100 µM (inactive), the GI50 (OVCAR-8) was 56.4 µM (inactive) and the GI50 (PC-3) was 56.4 µM (inactive). The GI50 (RPMI-8226) was 37.1 µM (inactive), the GI50 (SF-268) was > 100 µM (inactive) and the GI50 (SF-295) was 77.4 µM (inactive). For the same compound, the GI50 (SF-539) was > 100 µM (inactive), the GI50 (SK-MEL-28) was > 100 µM (inactive) and the GI50 (SK-MEL-2) was > 100 µM (inactive). For the same compound, the GI50 (SK-OV-3) was > 100 µM (inactive), the GI50 (SN12C) was > 100 µM (inactive) and the GI50 (SNB-19) was > 100 µM (inactive). For the same compound, the GI50 (SNB-75) was > 100 µM (inactive), the GI50 (SW-620) was > 100 µM (inactive) and the GI50 (T47D) was 52.4 µM (inactive). For the same compound, the GI50 (U-251) was > 100 µM (inactive), the GI50 (UACC-257) was > 100 µM (inactive) and the GI50 (UACC-62) was > 100 µM (inactive). For the same compound, the GI50 (UO-31) was 78 µM (inactive).
In the case of CC1=CC2C(C(C)C)CC1C1C(=O)OC(=O)C21 (centres undefined), the GI50 (786-0) is reported as > 100 µM (inactive), the GI50 (A498) is reported as > 100 µM (inactive) and the GI50 (A549) is reported as > 100 µM (inactive). For the same compound, the GI50 (ACHN) was > 100 µM (inactive), the GI50 (BT-549) was 84.1 µM (inactive) and the GI50 (COLO 205) was > 100 µM (inactive). For the same compound, the GI50 (DU-145) was > 100 µM (inactive), the GI50 (EKVX) was > 100 µM (inactive) and the GI50 (HCC 2998) was 30.9 µM (inactive). For the same compound, the GI50 (HCT-116) was 76.7 µM (inactive), the GI50 (HCT-15) was 58.2 µM and the GI50 (HL-60) was 23.3 µM (inactive). The GI50 (HOP-62) was 99.3 µM (inactive), the GI50 (HOP-92) was 65.5 µM (inactive) and the GI50 (HT-29) was > 100 µM (inactive). The GI50 (Hs-578T) was 75.3 µM (inactive), the GI50 (IGROV-1) was 14.4 µM (inactive) and the GI50 (K562) was 39.7 µM (inactive). The GI50 (LOX IMVI) was > 100 µM (inactive), the GI50 (M14) was > 100 µM (inactive) and the GI50 (MCF7) was > 100 µM (inactive). The GI50 (MDA-MB-231) was > 100 µM (inactive), the GI50 (MDA-MB-435) was > 100 µM (inactive) and the GI50 (Malme-3M) was 52 µM (inactive). For the same compound, the GI50 (NCI-H226) was > 100 µM (inactive), the GI50 (NCI-H23) was > 100 µM (inactive) and the GI50 (NCI-H460) was > 100 µM (inactive). The GI50 (NCI-H522) was 52.7 µM (inactive), the GI50 (NCI/ADR-RES) was 77.3 µM (inactive) and the GI50 (OVCAR-3) was 23.2 µM (inactive). The GI50 (OVCAR-4) was 91 µM (inactive), the GI50 (OVCAR-5) was > 100 µM (inactive) and the GI50 (OVCAR-8) was 65.6 µM (inactive). The GI50 (PC-3) was 76.6 µM (inactive), the GI50 (RXF 393) was > 100 µM (inactive) and the GI50 (SF-268) was > 100 µM (inactive). For the same compound, the GI50 (SF-539) was > 100 µM (inactive), the GI50 (SK-MEL-28) was > 100 µM (inactive) and the GI50 (SK-MEL-2) was > 100 µM (inactive). The GI50 (SK-MEL-5) was 85.5 µM (inactive), the GI50 (SK-OV-3) was > 100 µM (inactive) and the GI50 (SN12C) was 79.3 µM (inactive). The GI50 (SNB-19) was > 100 µM (inactive), the GI50 (SNB-75) was > 100 µM (inactive) and the GI50 (SW-620) was 86.9 µM (inactive). The GI50 (T47D) was 49.8 µM (inactive), the GI50 (TK-10) was 45.8 µM (inactive) and the GI50 (U-251) was 64.1 µM (inactive). For the same compound, the GI50 (UACC-257) was > 100 µM (inactive), the GI50 (UACC-62) was > 100 µM (inactive) and the GI50 (UO-31) was > 100 µM (inactive).
For CC(=O)c1cc(C)n2c1CS[C@@H]2c1ccccc1, the GI50 (786-0) was 19.7 µM (inactive), the GI50 (A498) was > 100 µM (inactive) and the GI50 (A549) was 53 µM (inactive). The GI50 (ACHN) was 68.2 µM (inactive), the GI50 (BT-549) was 37.2 µM (inactive) and the GI50 (CAKI-1) was 70.5 µM (inactive). The GI50 (CCRF-CEM) was 16.3 µM (inactive), the GI50 (COLO 205) was 12.2 µM (inactive) and the GI50 (DU-145) was 29.1 µM (inactive). For the same compound, the GI50 (EKVX) was 34.9 µM (inactive), the GI50 (HCT-116) was 30.8 µM (inactive) and the GI50 (HCT-15) was 31.3 µM. The GI50 (HL-60) was 34 µM (inactive), the GI50 (HOP-62) was 83.9 µM (inactive) and the GI50 (HOP-92) was 20.2 µM (inactive). For the same compound, the GI50 (HT-29) was 46.3 µM (inactive), the GI50 (Hs-578T) was > 100 µM (inactive) and the GI50 (IGROV-1) was 32.7 µM (inactive). For the same compound, the GI50 (K562) was 31.6 µM (inactive), the GI50 (KM12) was 54.6 µM (inactive) and the GI50 (LOX IMVI) was 26.3 µM (inactive). The GI50 (M14) was > 100 µM (inactive), the GI50 (MCF7) was 35.9 µM (inactive) and the GI50 (MDA-MB-231) was 43.3 µM (inactive). The GI50 (MDA-MB-435) was 27.3 µM (inactive), the GI50 (MOLT-4) was 25.2 µM (inactive) and the GI50 (Malme-3M) was > 100 µM (inactive). For the same compound, the GI50 (NCI-H226) was 41 µM (inactive), the GI50 (NCI-H23) was 65.6 µM (inactive) and the GI50 (NCI-H522) was 30.2 µM (inactive). For the same compound, the GI50 (NCI/ADR-RES) was 50.1 µM (inactive), the GI50 (OVCAR-3) was 39.6 µM (inactive) and the GI50 (OVCAR-4) was 59.7 µM (inactive). For the same compound, the GI50 (OVCAR-5) was > 100 µM (inactive), the GI50 (OVCAR-8) was 70.8 µM (inactive) and the GI50 (PC-3) was 33.3 µM (inactive). The GI50 (RPMI-8226) was 7.85 µM (inactive), the GI50 (RXF 393) was 31.5 µM (inactive) and the GI50 (SF-268) was 90.2 µM (inactive). The GI50 (SF-295) was 65.9 µM (inactive), the GI50 (SK-MEL-28) was > 100 µM (inactive) and the GI50 (SK-MEL-2) was 98.9 µM (inactive). The GI50 (SK-MEL-5) was 32.2 µM (inactive), the GI50 (SK-OV-3) was > 100 µM (inactive) and the GI50 (SN12C) was 57.3 µM (inactive). For the same compound, the GI50 (SNB-19) was > 100 µM (inactive), the GI50 (SNB-75) was 65.8 µM (inactive) and the GI50 (SR) was 27 µM (inactive). The GI50 (SW-620) was 33.7 µM (inactive), the GI50 (T47D) was 35.6 µM (inactive) and the GI50 (TK-10) was 91 µM (inactive). For the same compound, the GI50 (U-251) was 28.4 µM (inactive), the GI50 (UACC-257) was > 100 µM (inactive) and the GI50 (UO-31) was 64.3 µM (inactive).
